Assay [1] is described as follows: Inhibition of HCV J4 genotype 1b NS5Bdelta21 polymerase using homopolymeric RNA by SYBR Green assay. Set-up: species or system Hepatitis C virus subtype 1b.
The test system of assay [2] is Hepatitis C virus subtype 1b. Briefly: Inhibition of HCV J4 genotype 1b NS5Bdelta21 polymerase using homopolymeric RNA at 20 uM by SYBR Green assay.

What is called IC50 is the concentration at which inhibition is half-maximal. A lower IC50 goes with greater potency. In general, inhibition refers to the drop in the measured response relative to a control, in per cent. On to `CC(C)=CCn1cc(/C=C2\Oc3cc(O)cc(O)c3C2=O)c2ccccc21`, for which the half-maximal inhibitory concentration (IC50) in assay [1] was 3 µM. Further, the inhibition in assay [2] came to 94.7%.

As for `Cc1cccc(Cn2cc(/C=C3\Oc4cc(O)cc(O)c4C3=O)c3ccccc32)c1`, the IC50 in assay [1] was found to be 2.6 µM. Moreover, the inhibition in assay [2] is 95.6%.

For `CCCCOc1ccc(/C=C2\Oc3cc(O)cc(O)c3C2=O)cc1`, the inhibition in assay [2] was 81%.

As to `CC(C)Cn1cc(/C=C2\Oc3cc(O)cc(O)c3C2=O)c2ccccc21`, the 50% inhibitory concentration (IC50) in assay [1] is 8 µM. The molecule further gave an inhibition in assay [2] of 80.7%.

Regarding `CCCCn1cc(/C=C2\Oc3cc(O)cc(O)c3C2=O)c2cc(C)ccc21`, the inhibition in assay [2] stood at 96%.

`O=C1/C(=C/c2ccc(C(F)(F)F)cc2)Oc2cc(O)cc(O)c21` yielded a concentration for half-maximal inhibition (IC50) in assay [1] of 5.4 µM. In assay [2], the inhibition is 96%.

In turn, `CCCCn1cc(/C=C2\Oc3cc(O)cc(O)c3C2=O)c2cccc(OC)c21` came in with an inhibition in assay [2] of 93.1%.

Turning to `O=C1/C(=C/c2ccc(N3CCCCC3)cc2)Oc2cc(O)cc(O)c21`, the half-maximal inhibitory concentration (IC50) in assay [1] was 5.5 µM. The molecule also returned an inhibition in assay [2] of 93%.

In assay [1], `Cn1c(/C=C2\Oc3cc(O)cc(O)c3C2=O)cc2ccccc21` registered an IC50 of 3.1 µM. Moreover, the inhibition in assay [2] turned out to be 97.8%.

For the molecule `O=C1/C(=C/c2ccc(-c3ccccc3)cc2)Oc2cc(O)cc(O)c21`, the IC50 in assay [1] was determined as 4 µM. The inhibition in assay [2] is 93%.

In assay [2], `CCCCn1c(C)c(/C=C2\Oc3cc(O)cc(O)c3C2=O)c2ccccc21` had an inhibition of 91.6%.

As to `O=C1/C(=C/c2cn(Cc3cccc(O)c3)c3ccccc23)Oc2cc(O)cc(O)c21`, the IC50 in assay [1] is 2.4 µM. Also, the inhibition in assay [2] turned out to be 99.3%.

The molecule `O=C1/C(=C/c2cn(Cc3ccccc3)c3ccccc23)Oc2cc(O)cc(O)c21` yielded a concentration for half-maximal inhibition (IC50) in assay [1] of 2.6 µM. For the same molecule, in assay [2], the inhibition turned out to be 96.2%.

In assay [2], `CCCCn1ccc2cc(/C=C3\Oc4cc(O)cc(O)c4C3=O)ccc21` displayed an inhibition of 94.3%.

`O=C1/C(=C/c2ccc3[nH]cnc3c2)Oc2cc(O)cc(O)c21`: it took 10 µM to reach half-maximal inhibition in assay [1] (IC50). Besides, the inhibition in assay [2] was found to be 81%.

`CCCCn1cc(/C=C2\Oc3cc(O)cc(O)c3C2=O)c2cc(O)ccc21`: the inhibition in assay [2] is 53.5%.

As to `O=C(O)CCCn1cc(/C=C2\Oc3cc(O)cc(O)c3C2=O)c2ccccc21`, the inhibition in assay [2] is 70%.

`COc1cccc(Cn2cc(/C=C3\Oc4cc(O)cc(O)c4C3=O)c3ccccc32)c1` showed an IC50 in assay [1] of 2.7 µM. This molecule gave an inhibition in assay [2] of 95.4%.

For `O=C1/C(=C/c2ccc(CO)o2)Oc2cc(O)cc(O)c21`, in assay [1], the IC50 is greater than 16 µM. In assay [2], this molecule gave an inhibition of 33%.

On to `O=C1/C(=C/c2cn(CCCc3ccccc3)c3ccccc23)Oc2cc(O)cc(O)c21`, for which it took 2.7 µM to reach half-maximal inhibition in assay [1] (IC50). Also, the inhibition in assay [2] turned out to be 93%.

`O=C1/C(=C/c2ccco2)Oc2cc(O)cc(O)c21` registered an IC50 in assay [1] greater than 16 µM. In assay [2], this molecule registered an inhibition of 27%.

`CCCCn1cc(/C=C2\Oc3cc(O)cc(O)c3C2=O)c2cc(OC)ccc21` had an inhibition in assay [2] of 93.8%.

The molecule `O=C1/C(=C/c2cn(CCc3ccccc3)c3ccccc23)Oc2cc(O)cc(O)c21` showed an IC50 in assay [1] of 3.2 µM. This molecule displayed an inhibition in assay [2] of 93.9%.

With `O=C1/C(=C/c2cn(Cc3cccc(Br)c3)c3ccccc23)Oc2cc(O)cc(O)c21`, the half-maximal inhibitory concentration (IC50) in assay [1] was 2.4 µM. This molecule had an inhibition in assay [2] of 96%.

Regarding `O=C1/C(=C/c2cn(CC3CCCCC3)c3ccccc23)Oc2cc(O)cc(O)c21`, in assay [1], inhibition was half-maximal at 3.3 µM (IC50). In assay [2], this molecule returned an inhibition of 93%.

As for `CCCCn1cc(/C=C2\Oc3cc(O)cc(O)c3C2=O)c2cccc(C)c21`, the inhibition in assay [2] came out at 92.5%.

Regarding `O=C1/C(=C/c2ccc3ccccc3c2)Oc2cc(O)cc(O)c21`, the midpoint of inhibition in assay [1], the IC50, lay at 3.4 µM. In addition, the inhibition in assay [2] came out at 95%.

As to `CCCCn1cc(/C=C2\Oc3cc(O)cc(O)c3C2=O)c2cccc(O)c21`, in assay [1], the IC50 was found to be 2.3 µM. Further, the inhibition in assay [2] came out at 98.9%.

For `CCCCn1c(/C=C2\Oc3cc(O)cc(O)c3C2=O)cc2ccccc21`, the IC50 in assay [1] was 3 µM. In assay [2], this molecule yielded an inhibition of 98.4%.

In assay [1], `CCCCOc1ccc(/C=C2\Oc3cc(O)cc(O)c3C2=O)c(OCCCC)c1` gave an IC50 of 4 µM. In assay [2], this molecule displayed an inhibition of 90%.

`O=C1/C(=C/c2cccc3ccccc23)Oc2cc(O)cc(O)c21` showed an inhibition in assay [2] of 45%.

In turn, `O=C1/C(=C/c2ccc(-c3cccs3)cc2)Oc2cc(O)cc(O)c21` returned an IC50 in assay [1] of 4 µM. The molecule further displayed an inhibition in assay [2] of 97%.

In assay [2], `O=C1/C(=C/c2ccc3ccccc3n2)Oc2cc(O)cc(O)c21` displayed an inhibition of 42%.

As to `CN(C)c1ccc(/C=C2\Oc3cc(O)cc(O)c3C2=O)cc1`, the IC50 in assay [1] was 5 µM. In assay [2], this molecule displayed an inhibition of 90%.

In assay [1], `Cn1cccc1/C=C1\Oc2cc(O)cc(O)c2C1=O` gave a concentration for half-maximal inhibition (IC50) greater than 16 µM. The same molecule returned an inhibition in assay [2] of 55%.

For `Cn1cc(/C=C2\Oc3cc(O)cc(O)c3C2=O)c2ccccc21`, in assay [1], the IC50 was 6 µM. The inhibition in assay [2] was determined as 90%.

In the case of `O=C1/C(=C/c2cnc[nH]2)Oc2cc(O)cc(O)c21`, the 50% inhibitory concentration (IC50) in assay [1] was greater than 16 µM. Besides, the inhibition in assay [2] amounted to 39%.

The values above are taken from ChEMBL document CHEMBL3259757, “B-ring modified aurones as promising allosteric inhibitors of hepatitis C virus RNA-dependent RNA polymerase” (Eur J Med Chem, 2014).
